Reference: ChEMBL document CHEMBL3751785, “Development and structural analysis of adenosine site binding tankyrase inhibitors” (Bioorg Med Chem Lett, 2016)

Legend:
[1] = target: Protein mono-ADP-ribosyltransferase PARP14 (Homo sapiens, UniProt Q460N5); assay: Inhibition of human ARTD8 by fluorescence analysis
[2] = target: T1, Protein mono-ADP-ribosyltransferase PARP10 (Homo sapiens, UniProt Q53GL7); assay: Inhibition of human ARTD10 by fluorescence analysis
T1 sequence (Q53GL7 whole entry): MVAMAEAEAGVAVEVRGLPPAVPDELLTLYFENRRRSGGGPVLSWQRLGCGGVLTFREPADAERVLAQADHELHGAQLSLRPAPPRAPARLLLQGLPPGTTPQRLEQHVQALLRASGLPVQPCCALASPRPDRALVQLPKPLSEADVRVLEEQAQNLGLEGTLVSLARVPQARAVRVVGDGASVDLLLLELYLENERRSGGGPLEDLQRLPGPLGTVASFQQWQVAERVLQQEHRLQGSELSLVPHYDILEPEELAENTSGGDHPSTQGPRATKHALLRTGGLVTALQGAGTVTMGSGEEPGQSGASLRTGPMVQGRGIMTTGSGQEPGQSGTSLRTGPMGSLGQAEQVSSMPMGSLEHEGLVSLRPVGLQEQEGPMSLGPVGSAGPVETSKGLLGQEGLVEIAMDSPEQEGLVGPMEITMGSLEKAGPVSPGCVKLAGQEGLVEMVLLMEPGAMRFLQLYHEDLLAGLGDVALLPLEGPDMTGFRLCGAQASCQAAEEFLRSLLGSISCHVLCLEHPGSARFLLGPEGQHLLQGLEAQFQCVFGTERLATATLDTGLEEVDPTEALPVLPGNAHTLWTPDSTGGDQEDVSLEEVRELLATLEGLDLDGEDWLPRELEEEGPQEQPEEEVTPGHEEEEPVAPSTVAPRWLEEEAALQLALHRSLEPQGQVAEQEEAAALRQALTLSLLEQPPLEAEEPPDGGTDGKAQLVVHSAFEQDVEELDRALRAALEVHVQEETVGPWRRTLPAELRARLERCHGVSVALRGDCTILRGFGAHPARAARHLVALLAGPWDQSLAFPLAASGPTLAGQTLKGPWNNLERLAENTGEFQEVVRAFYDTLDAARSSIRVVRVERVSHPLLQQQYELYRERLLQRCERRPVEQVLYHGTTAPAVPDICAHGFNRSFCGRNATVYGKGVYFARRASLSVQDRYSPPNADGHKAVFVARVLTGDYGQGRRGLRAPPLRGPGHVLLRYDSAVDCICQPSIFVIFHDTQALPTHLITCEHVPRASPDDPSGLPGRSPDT

[3] = target: Poly [ADP-ribose] polymerase 2 (Homo sapiens, UniProt Q9UGN5); assay: Inhibition of human ARTD2 by fluorescence analysis
Poly [ADP-ribose] polymerase 2, sequence (Q9UGN5 whole entry): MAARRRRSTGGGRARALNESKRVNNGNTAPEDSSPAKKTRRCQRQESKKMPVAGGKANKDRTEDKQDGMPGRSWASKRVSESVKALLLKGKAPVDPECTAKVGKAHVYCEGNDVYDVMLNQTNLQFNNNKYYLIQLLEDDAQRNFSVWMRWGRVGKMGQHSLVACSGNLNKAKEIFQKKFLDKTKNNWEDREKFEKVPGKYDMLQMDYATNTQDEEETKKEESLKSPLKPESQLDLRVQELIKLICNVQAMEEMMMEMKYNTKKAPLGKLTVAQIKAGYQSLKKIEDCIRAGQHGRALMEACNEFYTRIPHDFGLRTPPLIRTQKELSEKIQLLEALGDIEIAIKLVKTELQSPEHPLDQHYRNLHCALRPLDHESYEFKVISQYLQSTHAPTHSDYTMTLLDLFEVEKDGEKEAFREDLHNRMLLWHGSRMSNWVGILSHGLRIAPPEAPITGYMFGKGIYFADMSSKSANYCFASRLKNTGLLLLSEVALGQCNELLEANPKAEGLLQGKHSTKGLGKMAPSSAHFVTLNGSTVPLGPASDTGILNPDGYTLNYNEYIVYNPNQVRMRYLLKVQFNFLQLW

[4] = target: Protein mono-ADP-ribosyltransferase PARP4 (Homo sapiens, UniProt Q9UKK3); assay: Inhibition of human ARTD4 by fluorescence analysis
Protein mono-ADP-ribosyltransferase PARP4, sequence (Q9UKK3 whole entry): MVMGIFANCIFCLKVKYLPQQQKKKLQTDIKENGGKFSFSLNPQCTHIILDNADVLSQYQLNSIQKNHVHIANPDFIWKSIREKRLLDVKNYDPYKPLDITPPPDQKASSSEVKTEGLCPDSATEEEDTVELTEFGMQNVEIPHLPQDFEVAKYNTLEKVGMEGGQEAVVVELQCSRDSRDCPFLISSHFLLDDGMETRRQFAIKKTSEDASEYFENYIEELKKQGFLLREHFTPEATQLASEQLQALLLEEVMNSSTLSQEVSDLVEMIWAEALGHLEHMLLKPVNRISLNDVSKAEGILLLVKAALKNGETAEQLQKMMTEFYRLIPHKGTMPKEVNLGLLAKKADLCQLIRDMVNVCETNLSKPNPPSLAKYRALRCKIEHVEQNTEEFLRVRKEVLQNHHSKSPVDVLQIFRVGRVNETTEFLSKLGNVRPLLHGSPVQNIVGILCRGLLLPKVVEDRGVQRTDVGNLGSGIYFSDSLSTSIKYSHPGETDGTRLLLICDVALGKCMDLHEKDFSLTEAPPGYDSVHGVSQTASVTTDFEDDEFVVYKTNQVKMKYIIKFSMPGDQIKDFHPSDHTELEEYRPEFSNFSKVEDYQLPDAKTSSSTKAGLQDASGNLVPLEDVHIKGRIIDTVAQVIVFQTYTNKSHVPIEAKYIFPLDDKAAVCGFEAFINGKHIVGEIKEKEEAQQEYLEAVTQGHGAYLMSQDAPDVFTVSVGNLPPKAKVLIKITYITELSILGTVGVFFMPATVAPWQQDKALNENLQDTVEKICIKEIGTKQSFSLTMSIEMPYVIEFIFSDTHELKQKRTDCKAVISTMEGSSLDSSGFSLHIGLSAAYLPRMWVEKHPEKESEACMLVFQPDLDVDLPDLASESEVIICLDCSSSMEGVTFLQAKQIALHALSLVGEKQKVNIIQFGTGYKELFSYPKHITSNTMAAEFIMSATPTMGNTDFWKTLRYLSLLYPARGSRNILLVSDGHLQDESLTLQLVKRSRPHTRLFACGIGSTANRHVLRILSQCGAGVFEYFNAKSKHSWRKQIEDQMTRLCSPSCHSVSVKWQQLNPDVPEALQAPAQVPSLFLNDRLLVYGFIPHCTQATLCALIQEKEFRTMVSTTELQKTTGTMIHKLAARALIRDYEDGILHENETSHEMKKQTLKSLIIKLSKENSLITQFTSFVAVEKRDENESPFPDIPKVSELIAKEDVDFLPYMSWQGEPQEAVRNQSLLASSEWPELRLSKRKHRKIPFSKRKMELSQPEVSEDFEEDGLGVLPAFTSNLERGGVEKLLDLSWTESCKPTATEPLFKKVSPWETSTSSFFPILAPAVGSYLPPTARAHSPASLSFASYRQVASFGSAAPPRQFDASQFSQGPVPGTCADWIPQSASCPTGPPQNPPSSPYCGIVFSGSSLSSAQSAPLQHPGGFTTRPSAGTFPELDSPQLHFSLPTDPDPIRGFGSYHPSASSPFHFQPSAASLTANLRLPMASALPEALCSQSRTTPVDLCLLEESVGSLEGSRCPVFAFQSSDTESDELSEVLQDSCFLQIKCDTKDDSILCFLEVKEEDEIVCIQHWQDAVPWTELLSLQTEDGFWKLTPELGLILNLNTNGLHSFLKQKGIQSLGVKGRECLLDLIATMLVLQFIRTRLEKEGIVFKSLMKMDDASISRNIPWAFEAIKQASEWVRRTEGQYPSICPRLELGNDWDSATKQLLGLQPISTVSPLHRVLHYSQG

[5] = target: T2, Protein mono-ADP-ribosyltransferase PARP15 (Homo sapiens, UniProt Q460N3); assay: Inhibition of human ARTD7 by fluorescence analysis
T2 sequence (Q460N3 whole entry): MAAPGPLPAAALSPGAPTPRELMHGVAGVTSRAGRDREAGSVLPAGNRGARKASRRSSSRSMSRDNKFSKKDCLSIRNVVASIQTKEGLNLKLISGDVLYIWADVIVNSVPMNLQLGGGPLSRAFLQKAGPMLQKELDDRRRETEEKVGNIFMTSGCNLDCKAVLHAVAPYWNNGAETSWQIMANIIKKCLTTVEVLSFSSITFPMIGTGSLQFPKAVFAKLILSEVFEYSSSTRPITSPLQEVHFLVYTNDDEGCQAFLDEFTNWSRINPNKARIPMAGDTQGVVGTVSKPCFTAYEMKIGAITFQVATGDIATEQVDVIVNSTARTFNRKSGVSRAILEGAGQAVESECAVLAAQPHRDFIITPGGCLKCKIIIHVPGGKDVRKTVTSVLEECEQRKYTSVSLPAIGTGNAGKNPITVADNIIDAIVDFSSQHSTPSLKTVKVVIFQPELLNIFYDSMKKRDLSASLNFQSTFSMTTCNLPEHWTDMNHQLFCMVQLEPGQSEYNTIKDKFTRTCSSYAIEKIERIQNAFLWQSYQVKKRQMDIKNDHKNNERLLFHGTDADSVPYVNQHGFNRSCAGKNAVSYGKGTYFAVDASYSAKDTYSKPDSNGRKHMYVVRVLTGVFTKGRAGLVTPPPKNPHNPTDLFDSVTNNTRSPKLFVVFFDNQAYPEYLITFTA

[6] = target: T3, Protein mono-ADP-ribosyltransferase PARP3 (Homo sapiens, UniProt Q9Y6F1); assay: Inhibition of human ARTD3 by fluorescence analysis
T3 sequence (Q9Y6F1 whole entry): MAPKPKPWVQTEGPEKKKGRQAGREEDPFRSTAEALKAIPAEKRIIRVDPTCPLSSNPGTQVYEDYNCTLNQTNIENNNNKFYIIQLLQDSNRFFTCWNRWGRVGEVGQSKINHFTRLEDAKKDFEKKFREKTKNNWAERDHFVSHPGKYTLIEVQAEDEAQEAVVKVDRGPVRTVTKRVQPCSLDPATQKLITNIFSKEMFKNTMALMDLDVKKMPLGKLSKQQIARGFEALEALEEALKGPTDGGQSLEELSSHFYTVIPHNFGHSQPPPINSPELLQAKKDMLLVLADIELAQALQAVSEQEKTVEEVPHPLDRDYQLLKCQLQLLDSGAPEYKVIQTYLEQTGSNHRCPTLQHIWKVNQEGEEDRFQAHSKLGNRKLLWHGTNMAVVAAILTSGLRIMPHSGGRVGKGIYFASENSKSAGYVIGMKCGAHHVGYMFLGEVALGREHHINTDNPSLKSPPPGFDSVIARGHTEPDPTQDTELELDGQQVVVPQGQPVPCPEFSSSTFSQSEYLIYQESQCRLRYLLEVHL

[7] = target: T4, Protein mono-ADP-ribosyltransferase PARP12 (Homo sapiens, UniProt Q9H0J9); assay: Inhibition of human ARTD12 by fluorescence analysis
T4 sequence (Q9H0J9 whole entry): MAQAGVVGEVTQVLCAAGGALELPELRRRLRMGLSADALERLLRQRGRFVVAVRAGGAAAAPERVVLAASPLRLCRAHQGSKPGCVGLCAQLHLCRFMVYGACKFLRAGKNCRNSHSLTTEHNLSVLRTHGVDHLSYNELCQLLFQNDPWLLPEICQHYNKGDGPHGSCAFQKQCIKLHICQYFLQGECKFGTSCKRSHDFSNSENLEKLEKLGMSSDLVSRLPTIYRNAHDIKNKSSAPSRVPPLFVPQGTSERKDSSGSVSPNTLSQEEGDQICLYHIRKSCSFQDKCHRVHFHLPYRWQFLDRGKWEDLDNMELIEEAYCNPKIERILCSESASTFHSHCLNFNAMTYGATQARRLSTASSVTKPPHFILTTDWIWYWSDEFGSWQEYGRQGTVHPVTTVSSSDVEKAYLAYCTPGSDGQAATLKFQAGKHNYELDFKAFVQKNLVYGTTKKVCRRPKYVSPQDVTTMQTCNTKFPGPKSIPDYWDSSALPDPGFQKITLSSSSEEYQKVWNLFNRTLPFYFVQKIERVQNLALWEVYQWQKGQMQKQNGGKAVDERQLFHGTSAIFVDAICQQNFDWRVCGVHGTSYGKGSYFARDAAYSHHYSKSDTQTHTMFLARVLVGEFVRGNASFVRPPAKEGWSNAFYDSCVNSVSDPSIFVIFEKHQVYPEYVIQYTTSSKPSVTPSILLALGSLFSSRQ

[8] = target: Poly [ADP-ribose] polymerase 1 (Homo sapiens, UniProt P09874); assay: Inhibition of human ARTD1 by fluorescence analysis
Poly [ADP-ribose] polymerase 1, sequence (P09874 whole entry): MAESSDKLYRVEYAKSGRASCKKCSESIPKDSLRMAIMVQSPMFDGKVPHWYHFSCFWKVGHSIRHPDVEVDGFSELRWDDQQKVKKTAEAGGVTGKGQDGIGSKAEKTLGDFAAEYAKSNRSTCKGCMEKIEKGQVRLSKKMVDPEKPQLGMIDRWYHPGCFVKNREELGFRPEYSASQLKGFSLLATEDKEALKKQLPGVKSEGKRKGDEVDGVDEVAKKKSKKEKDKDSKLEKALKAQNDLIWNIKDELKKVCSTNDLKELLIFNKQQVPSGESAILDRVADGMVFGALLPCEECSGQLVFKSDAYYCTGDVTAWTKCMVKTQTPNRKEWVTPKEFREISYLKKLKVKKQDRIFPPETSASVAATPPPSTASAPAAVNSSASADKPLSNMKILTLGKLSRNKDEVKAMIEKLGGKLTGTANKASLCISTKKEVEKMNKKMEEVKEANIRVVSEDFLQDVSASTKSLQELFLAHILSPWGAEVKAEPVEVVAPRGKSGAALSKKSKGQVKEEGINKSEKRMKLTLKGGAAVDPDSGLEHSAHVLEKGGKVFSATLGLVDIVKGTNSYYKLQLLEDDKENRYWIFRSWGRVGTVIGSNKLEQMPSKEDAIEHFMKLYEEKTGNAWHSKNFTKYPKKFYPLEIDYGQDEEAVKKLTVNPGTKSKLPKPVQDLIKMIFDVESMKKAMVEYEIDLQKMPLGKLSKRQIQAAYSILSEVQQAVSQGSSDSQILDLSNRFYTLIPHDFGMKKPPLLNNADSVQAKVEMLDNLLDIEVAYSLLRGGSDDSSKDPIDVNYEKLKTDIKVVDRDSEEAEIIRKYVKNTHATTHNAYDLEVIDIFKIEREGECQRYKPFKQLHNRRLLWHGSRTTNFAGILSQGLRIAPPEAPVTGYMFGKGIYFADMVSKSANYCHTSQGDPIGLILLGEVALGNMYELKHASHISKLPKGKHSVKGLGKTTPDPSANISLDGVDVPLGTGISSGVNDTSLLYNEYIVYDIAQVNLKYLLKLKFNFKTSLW

Protein mono-ADP-ribosyltransferase PARP14, sequence (Q460N5 whole entry): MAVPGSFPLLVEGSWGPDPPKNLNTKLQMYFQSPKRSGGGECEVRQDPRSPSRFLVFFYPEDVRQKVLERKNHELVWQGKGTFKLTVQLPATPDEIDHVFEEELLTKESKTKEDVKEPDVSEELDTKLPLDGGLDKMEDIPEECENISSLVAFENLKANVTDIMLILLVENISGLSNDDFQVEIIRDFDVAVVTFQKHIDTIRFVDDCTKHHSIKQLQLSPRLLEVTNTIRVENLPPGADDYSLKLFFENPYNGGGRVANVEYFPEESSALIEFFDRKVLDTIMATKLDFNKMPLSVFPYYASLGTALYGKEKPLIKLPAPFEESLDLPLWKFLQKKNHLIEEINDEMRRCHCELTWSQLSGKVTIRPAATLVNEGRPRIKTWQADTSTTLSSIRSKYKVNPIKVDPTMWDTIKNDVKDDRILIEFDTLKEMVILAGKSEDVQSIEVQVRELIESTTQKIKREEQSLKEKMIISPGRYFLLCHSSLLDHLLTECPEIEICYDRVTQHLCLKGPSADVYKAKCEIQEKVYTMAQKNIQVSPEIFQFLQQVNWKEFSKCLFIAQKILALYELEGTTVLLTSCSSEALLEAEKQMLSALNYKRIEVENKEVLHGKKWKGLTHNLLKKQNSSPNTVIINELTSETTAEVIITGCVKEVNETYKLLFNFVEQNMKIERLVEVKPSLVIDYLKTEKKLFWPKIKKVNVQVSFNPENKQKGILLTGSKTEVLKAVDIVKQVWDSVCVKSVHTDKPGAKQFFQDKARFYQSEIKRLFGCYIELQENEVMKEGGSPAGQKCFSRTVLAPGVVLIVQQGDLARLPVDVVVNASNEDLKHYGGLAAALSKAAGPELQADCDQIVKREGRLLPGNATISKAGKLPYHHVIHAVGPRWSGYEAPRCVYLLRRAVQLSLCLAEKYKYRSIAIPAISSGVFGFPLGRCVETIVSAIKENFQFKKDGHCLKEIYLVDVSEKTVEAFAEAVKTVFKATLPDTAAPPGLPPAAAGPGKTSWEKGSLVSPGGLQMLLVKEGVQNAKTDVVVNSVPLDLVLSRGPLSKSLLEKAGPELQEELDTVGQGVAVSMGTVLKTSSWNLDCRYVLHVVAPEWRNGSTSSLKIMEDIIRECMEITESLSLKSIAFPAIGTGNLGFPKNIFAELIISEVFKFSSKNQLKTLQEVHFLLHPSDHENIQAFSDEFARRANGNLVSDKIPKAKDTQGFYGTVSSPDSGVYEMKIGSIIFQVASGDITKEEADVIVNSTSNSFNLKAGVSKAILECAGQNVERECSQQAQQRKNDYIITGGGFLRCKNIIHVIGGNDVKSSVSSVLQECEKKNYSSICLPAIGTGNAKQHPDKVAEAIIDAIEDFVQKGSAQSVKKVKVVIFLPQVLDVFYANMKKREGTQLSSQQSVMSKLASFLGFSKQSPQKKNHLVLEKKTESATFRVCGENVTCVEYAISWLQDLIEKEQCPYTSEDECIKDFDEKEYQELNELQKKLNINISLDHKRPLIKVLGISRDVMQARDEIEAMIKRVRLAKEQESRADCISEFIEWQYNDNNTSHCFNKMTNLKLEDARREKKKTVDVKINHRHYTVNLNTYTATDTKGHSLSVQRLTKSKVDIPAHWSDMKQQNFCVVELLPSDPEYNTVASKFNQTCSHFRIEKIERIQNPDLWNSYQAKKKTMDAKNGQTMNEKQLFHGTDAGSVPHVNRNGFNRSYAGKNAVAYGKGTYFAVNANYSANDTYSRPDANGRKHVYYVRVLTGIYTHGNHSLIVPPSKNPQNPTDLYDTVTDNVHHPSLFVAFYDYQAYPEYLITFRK

## COc1ccc(C(=O)Nc2ccc(C(=O)N(c3ccncn3)c3ccccc3Cl)cc2)cc1
[1]
  IC50: > 10 µM
[2]
  IC50: > 10 µM
[3]
  IC50: > 100 µM
[4]
  IC50: > 100 µM
[5]
  IC50: > 10 µM
[6]
  IC50: > 100 µM
[7]
  IC50: > 10 µM
[8]
  IC50: 77 µM
